Test results as given in patent US9113629B2, “4-amino-6-(4-substituted-phenyl)-picolinates and 6-amino-2-(4-substituted-phenyl)-pyrimidine-4-carboxylates and their use as herbicides” (DOW AGROSCIENCES LLC, priority 2013, dated 2015).
Where two headings read alike, the source gives them in different places.

Legend:
[1] = tested on: Key Grass and Sedge Weeds as well as Grass Crops; assay: Post-emergent Test II herbicidal activity (Table 6); assay type: in vivo; conditions: post-emergence, 336 h; for pest or weed control at 70 g/ha: 70 g ai/ha; for pest or weed control at 140 g/ha: 140 g ai/ha
In short: (§1)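 Injury was rated visually 14 d after treatment on a 0–100% scale against untreated controls. Test compounds, formulated with crop oil concentrate and surfactant and serially diluted down to 1/16× of the top rate, were applied by track sprayer at 187 L/ha onto first- to second-true-leaf seedlings.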

[2] = tested on: Key Broadleaf Weed and Crop Species; assay: Post-emergent Test II herbicidal activity (Table 5); assay type: in vivo; conditions: post-emergence, 336 h, 14 days after application; for pest or weed control at 70 g/ha: application rate 70 g ai/ha; for pest or weed control at 140 g/ha: application rate 140 g ai/ha
In short: as §1

[3] = CYPES: yellow nutsedge (Cyperus esculentus), read-out: Visual Growth Reduction (%) 14 Days After Application, CYPES
[4] = DIGSA: crabgrass (Digitaria sanguinalis), read-out: Visual Growth Reduction (%) 14 Days After Application, DIGSA
[5] = ECHCG: barnyardgrass (Echinochloa crus-galli), read-out: Visual Growth Reduction (%) 14 Days After Application, ECHCG
[6] = ORYSA: rice (Oryza sativa), crop, read-out: Visual Growth Reduction (%) 14 Days After Application, ORYSA
[7] = SETFA: giant foxtail (Setaria faberi), read-out: Visual Growth Reduction (%) 14 Days After Application, SETFA
[8] = SORVU: grain sorghum (Sorghum vulgare), read-out: Visual Growth Reduction (%) 14 Days After Application, SORVU
[9] = TRZSS (wheat, Triticum aestivum), crop, read-out: Visual Growth Reduction (%) 14 Days After Application, TRZSS
[10] = ZEAMX: maize, corn (Zea mays), crop, read-out: Visual Growth Reduction (%) 14 Days After Application, ZEAMX
[11] = ABUTH: velvetleaf (Abutilon theophrasti), read-out: Visual Growth Reduction (%) 14 Days After Application, ABUTH
[12] = AMARE: redroot pigweed (Amaranthus retroflexus), read-out: Visual Growth Reduction (%) 14 Days After Application, AMARE
[13] = BRSNN: oilseed-rape, canola (Brassica napus), read-out: Visual Growth Reduction (%) 14 Days After Application, BRSNN
[14] = CHEAL: lambsquarters (Chenopodium album), read-out: Visual Growth Reduction (%) 14 Days After Application, CHEAL
[15] = EPHHL: wild poinsettia (Euphorbia heterophylla), read-out: Visual Growth Reduction (%) 14 Days After Application, EPHHL
[16] = HELAN: sunflower (Helianthus annuus), read-out: Visual Growth Reduction (%) 14 Days After Application, HELAN
[17] = VIOTR: wild pansy (Viola tricolor), read-out: Visual Growth Reduction (%) 14 Days After Application, VIOTR

In the case of `C=Cc1c(C(=O)O)nc(-c2ccc(Cl)c(F)c2)c(F)c1N` [Compound 214], the pest or weed control at 70 g/ha [1, 3] is reported as 95 to 100%, the pest or weed control at 140 g/ha [1, 3] is reported as 95 to 100% and the pest or weed control at 70 g/ha [1, 4] is reported as 0 to 29%. It also gave a pest or weed control at 140 g/ha [1, 4] of 0 to 29%, a pest or weed control at 70 g/ha [1, 5] of 95 to 100% and a pest or weed control at 140 g/ha [1, 5] of 95 to 100%. It also gave a pest or weed control at 70 g/ha [1, 6] of 0 to 29%, a pest or weed control at 140 g/ha [1, 6] of 45 to 59% and a pest or weed control at 70 g/ha [1, 7] of 0 to 29%. It also gave a pest or weed control at 140 g/ha [1, 7] of 30 to 44%, a pest or weed control at 70 g/ha [1, 8] of 75 to 84% and a pest or weed control at 140 g/ha [1, 8] of 85 to 94%. For the same compound, the pest or weed control at 70 g/ha [1, 9] was 0 to 29%, the pest or weed control at 140 g/ha [1, 9] was 0 to 29% and the pest or weed control at 70 g/ha [1, 10] was 85 to 94%. For the same compound, the pest or weed control at 140 g/ha [1, 10] was 85 to 94%, the pest or weed control at 70 g/ha [2, 11] was 95 to 100% and the pest or weed control at 140 g/ha [2, 11] was 95 to 100%. For the same compound, the pest or weed control at 70 g/ha [2, 12] was 95 to 100%, the pest or weed control at 140 g/ha [2, 12] was 95 to 100% and the pest or weed control at 70 g/ha [2, 13] was 95 to 100%. It also gave a pest or weed control at 140 g/ha [2, 13] of 95 to 100%, a pest or weed control at 70 g/ha [2, 14] of 95 to 100% and a pest or weed control at 140 g/ha [2, 14] of 95 to 100%. For the same compound, the pest or weed control at 70 g/ha [2, 15] was 95 to 100%, the pest or weed control at 140 g/ha [2, 15] was 95 to 100% and the pest or weed control at 70 g/ha [2, 16] was 95 to 100%. For the same compound, the pest or weed control at 140 g/ha [2, 16] was 95 to 100%, the pest or weed control at 70 g/ha [2, 17] was 75 to 84% and the pest or weed control at 140 g/ha [2, 17] was 75 to 84%.
